Source: patent US8992990B2, “Magnetic nanocomposite for inhibiting/treating cancer and method for fabricating the same” (Chang Gung University, priority 2009, dated 2015)

Legend:
[1] = Storage stability, residual activity by Bratton-Marshall assay
Description: Use the Bratton-Marshall assay to detect the residual activities after the storages of 1-30 days for comparing the storage stabilities. Refer to FIGS. 5(a)-5(c).

mouse glioma cells (C6) = experiment: In vitro toxicity / cell growth inhibition, XTT assay, C6 cells; assay type: cell-based; conditions: 100 μM, 12 hours later
Description: Place 150 μL of a mixture liquid containing 10000 mouse glioma cells (C6) into every well of a 96-well culture plate. Place the culture plates in a humidified incubator at a temperature of 37 C.° and with 5% CO2 to enable adherent growth of the cells. […] Once cell counting begins, remove RPMI1640 and add 120 μL of an XTT reaction liquid (2,3-Bis(2-methoxy-4-nitro-5-sulfophenyl)-2H-tetrazolium-5-carboxanili de inner salt).

human glioma cells (U87) = experiment: In vitro toxicity / cell growth inhibition, XTT assay, U87 cells; assay type: cell-based; conditions: 100 μM, 72 hours later
Description: Place 150 μL of a mixture liquid containing 10000 human glioma cells (U87) into every well of a 96-well culture plate. Place the culture plates in a humidified incubator at a temperature of 37 C.° and with 5% CO2 to enable adherent growth of the cells. […] Once cell counting begins, remove RPMI1640 and add 120 μL of an XTT reaction liquid (2,3-Bis(2-methoxy-4-nitro-5-sulfophenyl)-2H-tetrazolium-5-carboxanili de inner salt).

Work on `O=NN(CCCl)C(=O)NCCCl` [BCNU, 1,3-bis(2-chloroethyl)-1-nitrosourea] yielded a half-life ([1]; storing at 4° C.) of 300 h, a half-life ([1]; storing at 25° C.) of 22 h and a half-life ([1]; storing at 37° C.) of 12 h. The remains after storage ([1]; stored for 30 days) was 22%, the “C6 cell growth-inhibition ratio” value (mouse glioma cells (C6)) was 53% and the “U87 cell growth-inhibition ratio” value (human glioma cells (U87)) was 49%. For the same compound, the solubility in water (Solubility in water) was “low solubility in water”.
